{
  "source": "PubChem BioAssay (NCI)",
  "note": "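The compound was tested at five concentrations on cells cultured in 96-well plates, with a 48-hour exposure period. GI50: concentration for 50% inhibition of growth. TGI denotes the concentration required for complete inhibition of growth.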",
  "data": [
    {"tested_on": "A498 renal", "test": "inhibition of tumour cell growth, NCI panel, 48 h", "units": {"TGI": "µM", "GI50": "nM"}, "values": [
      {"smiles": "COc1cccc(Nc2nc(-c3cccs3)nc3cc(OC)c(OC)cc23)c1", "TGI": 48.5},
      {"smiles": "Nn1c(-c2ccccc2)n[nH]c1=O", "TGI": "> 100"},
      {"smiles": "COc1ccc2[nH]cc(/C=C(/C)c3ccncc3)c2c1", "TGI": 42.5},
      {"smiles": "Nc1c(-c2ccc(Cl)c(Cl)c2)c2ccc([N+](=O)[O-])cc2c(=O)n1-c1nc2ccccc2s1", "TGI": 24.3},
      {"smiles": "COC(=O)[C@@H](O)[C@](O)(CCC(C)C)C(=O)O[C@@H]1C(OC)=C[C@]23CCCN2CCc2cc4c(cc2[C@H]13)OCO4", "TGI": 4.45},
      {"smiles": "COC(=O)c1c(C)nc2c1cc(O)c1[nH]c(C)c(C)nc12", "TGI": "> 100"},
      {"smiles": "Cn1c2ccc3cc2c(=S)c2cc(ccc21)OCCOCCOCCOCCOCCOCCO3", "TGI": "> 10"},
      {"smiles": "COc1cc(S(=O)(=O)Nc2nc(-c3ccc(N4C(=O)C(CC(=O)O)SC4c4cccs4)cc3)cs2)ccc1Cl", "note": "(stereo not given)", "TGI": "> 100"},
      {"smiles": "CC(=O)N1C(C(=O)NC2CCCCC2)CSC1c1ccccc1", "note": "(stereo not given)", "TGI": "> 100"},
      {"smiles": "CC1(C)O[C@H]2OC(CO[Si](C)(C)C(C)(C)C)C(N=[N+]=[N-])[C@H]2O1", "note": "(stereo not given in full)", "TGI": 53},
      {"smiles": "COc1ccc2cc1Oc1ccc(cc1)C[C@H]1c3cc(c(OC)cc3CCN1C)Oc1c(O)c(OC)cc3c1[C@H](C2)N(C)CC3", "TGI": 50.4},
      {"smiles": "C#CCn1c(=O)c2ccccc2n(CC#C)c1=O", "TGI": "> 10"},
      {"smiles": "Oc1ccc(Cc2cc(Cc3ccc(O)cc3)cc(Cc3ccc(O)cc3)c2)cc1", "TGI": "> 50"},
      {"smiles": "Nc1ncnc2c1[nH]c(=O)n2-c1ccccc1", "TGI": "> 100"},
      {"smiles": "CC1CN(C)c2ccccc2N=C1NN", "note": "(stereo not given)", "TGI": "> 100"},
      {"smiles": "O=C(c1ccccn1)C1(N2CCCCC2)CCCCC1", "TGI": "> 100"},
      {"smiles": "COc1ccc(CN2C(=O)/C(=C\\c3cc(OC)c(OC)c(OC)c3)c3ccccc32)cc1", "GI50": 2790, "TGI": 14.3},
      {"smiles": "Cc1ccc(NC(=O)CC2Sc3ccccc3NC2=O)cc1C", "note": "(stereo not given)", "TGI": "> 100"},
      {"smiles": "N[C@@H](CCC(=O)NCP(=O)(O)O)C(=O)O", "TGI": "> 100"},
      {"smiles": "CCOP(=O)(OCC)C(F)(F)c1ccc(CC(NC(=O)OC(C)(C)C)C(=O)O)cc1", "note": "(stereo not given)", "TGI": "> 10"},
      {"smiles": "NC(=O)C(=Cn1c(=S)[nH]c2ccc([N+](=O)[O-])cc21)C(N)=O", "TGI": "> 100"},
      {"smiles": "O=C(C1OC1c1ccc(Br)cc1O)C12CC3CC(CC(C3)C1)C2", "note": "(stereo not given)", "TGI": "> 100"},
      {"smiles": "O=C1C=C[C@@H](COC2OC(CO)C(O)C(O)C2O)O1", "note": "(stereo not given in full)", "TGI": 30.6},
      {"smiles": "c1ccc2c3[nH]c(c2c1)=Nc1ccc(cc1)-c1nc2cc(ccc2o1)N=c1[nH]c(c2ccccc12)=Nc1ccc2nc(oc2c1)-c1ccc(cc1)N=3", "TGI": "> 100"},
      {"smiles": "O=C(OCc1ccccc1)N1CCNCCN(C(=O)OCc2ccccc2)CCNCC1", "TGI": "> 100"},
      {"smiles": "O=C(Cc1ccc(O)c(O)c1)NCc1c[nH]c2ccccc12", "TGI": "> 100"}
    ]},
    {"tested_on": "BT-549 breast", "test": "inhibition of tumour cell growth, NCI panel, 48 h", "units": {"TGI": "µM", "GI50": "nM"}, "values": [
      {"smiles": "COc1cccc(Nc2nc(-c3cccs3)nc3cc(OC)c(OC)cc23)c1", "TGI": 86},
      {"smiles": "Nn1c(-c2ccccc2)n[nH]c1=O", "TGI": "> 100"},
      {"smiles": "C=CC1(CC/C(=C\\[N+](=O)[O-])c2ccc(OC)c(OC)c2)OCC(C)(C)CO1", "TGI": 31.1},
      {"smiles": "Cc1cc(C)nc(NS(=O)(=O)c2ccc(NC(=O)c3ccc4nc5ccccc5c(Nc5ccc(S(N)(=O)=O)cc5)c4c3)cc2)n1", "TGI": "> 100"},
      {"smiles": "Nc1c(-c2ccc(Cl)c(Cl)c2)c2ccc([N+](=O)[O-])cc2c(=O)n1-c1nc2ccccc2s1", "TGI": 21.7},
      {"smiles": "CC1(C(=O)O)CCC2(C)CCC3(C)C(=CC(=O)C4C5(C)CCC(O)C(C)(C)C5CCC43C)C2C1", "note": "(stereo not given)", "TGI": 42.3},
      {"smiles": "COC(=O)c1c(C)nc2c1cc(O)c1[nH]c(C)c(C)nc12", "TGI": "> 100"},
      {"smiles": "Cn1c2ccc3cc2c(=S)c2cc(ccc21)OCCOCCOCCOCCOCCOCCO3", "TGI": "> 10"},
      {"smiles": "CC(=O)N1C(C(=O)NC2CCCCC2)CSC1c1ccccc1", "note": "(stereo not given)", "TGI": "> 100"},
      {"smiles": "CC1(C)O[C@H]2OC(CO[Si](C)(C)C(C)(C)C)C(N=[N+]=[N-])[C@H]2O1", "note": "(stereo not given in full)", "TGI": 36.7},
      {"smiles": "O=[N+]([O-])c1ccc(Cl)cc1N/N=C/c1ccnc2ccccc12", "TGI": "> 100"},
      {"smiles": "Oc1[nH]c2ccccc2c1N=Nc1nc(-c2ccc(Br)cc2)cs1", "TGI": 45.6},
      {"smiles": "O=C1CCC2(c3ccc(Cl)cc3)Nc3ccncc3N12", "note": "(stereo not given)", "TGI": "> 10"},
      {"smiles": "Oc1ccc(Cc2cc(Cc3ccc(O)cc3)cc(Cc3ccc(O)cc3)c2)cc1", "TGI": "> 50"},
      {"smiles": "Nc1ncnc2c1[nH]c(=O)n2-c1ccccc1", "TGI": "> 100"},
      {"smiles": "CC1CN(C)c2ccccc2N=C1NN", "note": "(stereo not given)", "TGI": "> 100"},
      {"smiles": "O=C(c1ccccn1)C1(N2CCCCC2)CCCCC1", "TGI": "> 100"},
      {"smiles": "COc1ccc(CN2C(=O)/C(=C\\c3cc(OC)c(OC)c(OC)c3)c3ccccc32)cc1", "GI50": 1080, "TGI": 7.53},
      {"smiles": "N[C@@H](CCC(=O)NCP(=O)(O)O)C(=O)O", "TGI": "> 100"},
      {"smiles": "CCOP(=O)(OCC)C(F)(F)c1ccc(CC(NC(=O)OC(C)(C)C)C(=O)O)cc1", "note": "(stereo not given)", "TGI": "> 10"},
      {"smiles": "NC(=O)C(=Cn1c(=S)[nH]c2ccc([N+](=O)[O-])cc21)C(N)=O", "TGI": "> 100"},
      {"smiles": "c1ccc2c3[nH]c(c2c1)=Nc1ccc(cc1)-c1nc2cc(ccc2o1)N=c1[nH]c(c2ccccc12)=Nc1ccc2nc(oc2c1)-c1ccc(cc1)N=3", "TGI": "> 100"},
      {"smiles": "S=C(N/N=C(/c1ccccc1)c1ccccn1)N(Cc1ccccn1)Cc1ccccn1", "TGI": 1.51},
      {"smiles": "O=C(OCc1ccccc1)N1CCNCCN(C(=O)OCc2ccccc2)CCNCC1", "TGI": "> 100"},
      {"smiles": "O=C(Cc1ccc(O)c(O)c1)NCc1c[nH]c2ccccc12", "TGI": "> 100"},
      {"smiles": "O=C(NCc1ccccc1)c1n[nH][nH]c1=O", "TGI": "> 100"}
    ]},
    {"tested_on": "HCC-2998 colon", "test": "inhibition of tumour cell growth, NCI panel, 48 h", "units": {"TGI": "µM", "GI50": "nM"}, "values": [
      {"smiles": "Nn1c(-c2ccccc2)n[nH]c1=O", "TGI": "> 100"},
      {"smiles": "COc1ccc2[nH]cc(/C=C(/C)c3ccncc3)c2c1", "TGI": 95.3},
      {"smiles": "C=CC1(CC/C(=C\\[N+](=O)[O-])c2ccc(OC)c(OC)c2)OCC(C)(C)CO1", "TGI": 46.2},
      {"smiles": "Cc1cc(C)nc(NS(=O)(=O)c2ccc(NC(=O)c3ccc4nc5ccccc5c(Nc5ccc(S(N)(=O)=O)cc5)c4c3)cc2)n1", "TGI": "> 100"},
      {"smiles": "Nc1c(-c2ccc(Cl)c(Cl)c2)c2ccc([N+](=O)[O-])cc2c(=O)n1-c1nc2ccccc2s1", "TGI": 92.6},
      {"smiles": "CC1(C(=O)O)CCC2(C)CCC3(C)C(=CC(=O)C4C5(C)CCC(O)C(C)(C)C5CCC43C)C2C1", "note": "(stereo not given)", "TGI": 87.3},
      {"smiles": "COC(=O)[C@@H](O)[C@](O)(CCC(C)C)C(=O)O[C@@H]1C(OC)=C[C@]23CCCN2CCc2cc4c(cc2[C@H]13)OCO4", "TGI": 2.32},
      {"smiles": "COC(=O)c1c(C)nc2c1cc(O)c1[nH]c(C)c(C)nc12", "TGI": "> 100"},
      {"smiles": "Cn1c2ccc3cc2c(=S)c2cc(ccc21)OCCOCCOCCOCCOCCOCCO3", "TGI": "> 10"},
      {"smiles": "COc1cc(S(=O)(=O)Nc2nc(-c3ccc(N4C(=O)C(CC(=O)O)SC4c4cccs4)cc3)cs2)ccc1Cl", "note": "(stereo not given)", "TGI": "> 100"},
      {"smiles": "CC(=O)N1C(C(=O)NC2CCCCC2)CSC1c1ccccc1", "note": "(stereo not given)", "TGI": "> 100"},
      {"smiles": "CC1(C)O[C@H]2OC(CO[Si](C)(C)C(C)(C)C)C(N=[N+]=[N-])[C@H]2O1", "note": "(stereo not given in full)", "TGI": 32.2},
      {"smiles": "O=[N+]([O-])c1ccc(Cl)cc1N/N=C/c1ccnc2ccccc12", "TGI": "> 100"},
      {"smiles": "Oc1[nH]c2ccccc2c1N=Nc1nc(-c2ccc(Br)cc2)cs1", "TGI": "> 100"},
      {"smiles": "COc1ccc2cc1Oc1ccc(cc1)C[C@H]1c3cc(c(OC)cc3CCN1C)Oc1c(O)c(OC)cc3c1[C@H](C2)N(C)CC3", "TGI": 24.7},
      {"smiles": "C#CCn1c(=O)c2ccccc2n(CC#C)c1=O", "TGI": "> 10"},
      {"smiles": "Oc1ccc(Cc2cc(Cc3ccc(O)cc3)cc(Cc3ccc(O)cc3)c2)cc1", "TGI": "> 50"},
      {"smiles": "Nc1ncnc2c1[nH]c(=O)n2-c1ccccc1", "TGI": "> 100"},
      {"smiles": "O=C(c1ccccn1)C1(N2CCCCC2)CCCCC1", "TGI": "> 100"},
      {"smiles": "COc1ccc(CN2C(=O)/C(=C\\c3cc(OC)c(OC)c(OC)c3)c3ccccc32)cc1", "GI50": 1780, "TGI": 3.31}
    ]}
  ]
}
